In PubChem BioAssay (NCI):
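96-well plates; 48 h exposure; 5 concentrations. Endpoints by linear interpolation between flanking doses. Not reached: highest tested concentration assigned. Abbreviation: GI50, concentration required for 50% inhibition of growth. TGI: total growth inhibition.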

Legend:
Test in all cases: NCI-60 cell line screen, 48 h
[1] = system: BT-549 breast
[2] = system: SK-OV-3 ovarian
[3] = system: MDA-MB-435
[4] = system: T-47D breast
[5] = system: HL-60(TB) leukemia
[6] = system: K-562 leukemia
[7] = system: SK-MEL-2 melanoma
[8] = system: MCF7 breast
[9] = system: NCI/ADR-RES ovarian
[10] = system: OVCAR-5 ovarian
[11] = system: HCT-116 colon
[12] = system: SF-539 CNS
[13] = system: MALME-3M melanoma
[14] = system: DU-145 prostate
[15] = system: HOP-92 NSCLC
[16] = system: SF-295 CNS
[17] = system: CCRF-CEM leukemia
[18] = system: HS 578T breast
[19] = system: SK-MEL-28 melanoma
[20] = system: SNB-19 CNS
[21] = system: IGROV1 ovarian
[22] = system: NCI-H226 lung
[23] = system: LOX IMVI melanoma
[24] = system: CAKI-1 renal
[25] = system: RPMI-8226 leukemia
[26] = system: MOLT-4 leukemia
[27] = system: SN12C renal
[28] = system: HOP-62 NSCLC
[29] = system: UACC-257 melanoma
[30] = system: NCI-H23 lung
[31] = system: MDA-MB-231 breast
[32] = system: U251 CNS
[33] = system: OVCAR-8 ovarian
[34] = system: HCT-15 colon
[35] = system: SF-268 CNS
[36] = system: 786-0 renal
[37] = system: KM12 colon
[38] = system: M14 melanoma
[39] = system: NCI-H522 lung
[40] = system: PC-3 prostate
[41] = system: NCI-H460 lung
[42] = system: OVCAR-3 ovarian
[43] = system: EKVX NSCLC
[44] = system: UACC-62 melanoma
[45] = system: HT29 colon
[46] = system: TK-10 renal
[47] = system: ACHN renal
[48] = system: SK-MEL-5 melanoma
[49] = system: RXF 393 renal
[50] = system: COLO 205 colon
[51] = system: OVCAR-4 ovarian
[52] = system: A549 NSCLC
[53] = system: SNB-75 CNS
[54] = system: UO-31 renal
[55] = system: SW-620 colon

**Q.** What does the source list for `Cn1c(Cl)c(/C=C2/C(=O)Nc3ccccc32)c2ccccc21`?
**A.** GI50 [1]: 0.243 µM; TGI [1]: 3.87 µM; GI50 [2]: 0.732 µM; TGI [2]: 10.5 µM; GI50 [3]: < 0.0438 µM; TGI [3]: 0.152 µM; GI50 [4]: 0.724 µM; TGI [4]: 23.9 µM; GI50 [5]: 0.14 µM; TGI [5]: 1.92 µM; GI50 [6]: 0.0601 µM; TGI [6]: > 100 µM; GI50 [7]: 2.32 µM; TGI [7]: 26.1 µM; GI50 [8]: 0.198 µM; GI50 [9]: 0.371 µM; TGI [9]: 3.57 µM; GI50 [10]: 3.85 µM; TGI [10]: 27.8 µM; GI50 [11]: 0.306 µM; TGI [11]: 12.3 µM; GI50 [12]: 0.17 µM; TGI [12]: 1.06 µM; GI50 [13]: 0.179 µM; TGI [13]: 15.3 µM; GI50 [14]: 1.4 µM; TGI [14]: 15.8 µM; GI50 [15]: 13.4 µM; TGI [15]: > 100 µM; GI50 [16]: 0.223 µM; TGI [16]: 2.21 µM; GI50 [17]: 0.592 µM; TGI [17]: > 22.1 µM; GI50 [18]: 0.248 µM; TGI [18]: 2.03 µM; GI50 [19]: 1.08 µM; TGI [19]: 19.7 µM; GI50 [20]: 0.935 µM; TGI [20]: 29.9 µM; GI50 [21]: 2.12 µM; TGI [21]: > 100 µM; GI50 [22]: 1.83 µM; TGI [22]: 21.9 µM; GI50 [23]: 1.16 µM; TGI [23]: 18.9 µM; GI50 [24]: 0.603 µM; TGI [24]: 17.9 µM; GI50 [25]: 0.582 µM; TGI [25]: 4.6 µM; GI50 [26]: 0.139 µM; GI50 [27]: 1.87 µM; TGI [27]: 23.7 µM; GI50 [28]: 0.293 µM; TGI [28]: 6.68 µM; GI50 [29]: 10.7 µM; TGI [29]: 37.8 µM; GI50 [30]: 1.02 µM; TGI [30]: 8.89 µM; GI50 [31]: 0.588 µM; TGI [31]: 12.7 µM; GI50 [32]: 0.758 µM; TGI [32]: 14.9 µM; GI50 [33]: 1.7 µM; TGI [33]: > 37.1 µM; GI50 [34]: 0.16 µM; TGI [34]: 11.9 µM; GI50 [35]: 4.08 µM; TGI [35]: > 35.7 µM; GI50 [36]: 1.32 µM; TGI [36]: 20.5 µM; GI50 [37]: 0.0689 µM; TGI [37]: 1.27 µM; GI50 [38]: 0.248 µM; TGI [38]: 5.46 µM; GI50 [39]: 2.39 µM; TGI [39]: 22.4 µM; GI50 [40]: 0.859 µM; TGI [40]: > 33.7 µM; GI50 [41]: 0.727 µM; TGI [41]: > 32.2 µM; GI50 [42]: 0.204 µM; TGI [42]: 1.26 µM; TGI [43]: 7.52 µM; GI50 [44]: 0.13 µM; TGI [44]: 7.1 µM; GI50 [45]: 0.144 µM; TGI [45]: > 100 µM; GI50 [46]: 1.5 µM; TGI [46]: 20.4 µM; GI50 [47]: 1.15 µM; TGI [47]: 18.8 µM; GI50 [48]: 0.0964 µM; TGI [48]: 1.23 µM; GI50 [49]: 0.392 µM; TGI [49]: > 19.6 µM; GI50 [50]: 0.705 µM; TGI [50]: 6.64 µM; GI50 [51]: 2.62 µM; TGI [51]: > 46.7 µM; GI50 [52]: 6.58 µM; TGI [52]: > 63 µM; GI50 [53]: 3.28 µM; TGI [53]: 23 µM; GI50 [54]: 3.39 µM; TGI [54]: 44.7 µM; GI50 [55]: 0.299 µM; TGI [55]: 14.7 µM
